{
  "source": "patent US8288367B2",
  "about": "“Substituted estratriene derivatives as 17BETA HSD inhibitors” (Solvay Pharmaceuticals GmBH, priority 2006, dated 2012)",
  "target": "T1, recombinant human 17β-HSD1 (Homo sapiens, UniProt P14061)",
  "T1 construct": "made in house; host or cells: Sf9 insect cells (baculovirus, Bac to Bac Expression System)",
  "T1 sequence (P14061 1-328)": "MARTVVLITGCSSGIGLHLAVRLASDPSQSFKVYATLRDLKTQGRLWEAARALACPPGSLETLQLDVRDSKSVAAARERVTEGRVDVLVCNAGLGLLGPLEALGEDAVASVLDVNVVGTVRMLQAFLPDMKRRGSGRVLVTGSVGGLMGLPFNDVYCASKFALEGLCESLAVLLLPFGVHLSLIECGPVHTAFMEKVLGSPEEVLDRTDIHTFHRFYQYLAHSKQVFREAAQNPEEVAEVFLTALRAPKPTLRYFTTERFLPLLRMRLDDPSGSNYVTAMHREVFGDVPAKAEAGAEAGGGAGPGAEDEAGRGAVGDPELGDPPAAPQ",
  "assay": "Recombinant 17β-HSD1 assay (HPLC, 3H-estrone conversion)",
  "type": "biochemical",
  "conditions": "30 nM estrone, 1 mM NADPH, 30 min RT, read-out: Inhibition of rec. 17β-HSD1; for inhibition at 0.1 µM: 100 nM compound; for inhibition at 1 µM: 0.5 h, 1 μm compound",
  "method": "17β-HSD1 or 17β-HSD2 purification: Recombinant 17β-HSD1 and 17β-HSD2 baculoviruses were generated by the “Bac to Bac Expression System” (Invitrogen). Recombinant 17β-HSD1 or 17β-HSD2 bacmids were transfected to Sf9 insect cells using “Cellfectin Reagent” (Invitrogen). 60 h later cells were harvested; the fractions including 17β-HSD1 or 17β-HSD2 were isolated as described by Puranen et al. (1994). Aliquots were stored frozen until determination of enzymatic activity.\nRecombinant 17β-HSD1 assay: Recombinant protein homogenate (0.1 μg/ml) was incubated in 20 mM KH2PO4 pH 7.4 reaction buffer, including protease inhibitors (Complete Protease Inhibitor Cocktail tablet, Roche Diagnostics, 1697498), with 30 nM estrone (Sigma, E9750) as substrate, 800 000 cpm/ml ^3H-estrone (PerkinElmer, NET319001MC) as a tracer substrate, and 1 mM NADPH (Sigma, N1630) as a co-factor for 30 min at RT, in the presence of potential inhibitors at concentrations of 1 μM or 0.1 μM. Inhibitor stock solutions were prepared in DMSO. The enzyme reaction was stopped by addition of trichloroacetic acid (1% final concentration). Samples were centrifuged in a microtiter plate at 4000 rpm for 10 min. Supernatants were applied to reverse phase HPLC on a Waters Symmetry C18 column, equipped with a Waters Sentry Guard column. Isocratic HPLC runs were performed at RT at a flow rate of 1 ml/min of acetonitrile:water 48:52 as running solvent. Radioactivity was monitored in the eluate by a Packard Flow Scintillation Analyzer. Total radioactivity for estrone and estradiol were determined in each sample and percent inhibition of estradiol conversion by the respective inhibitor was calculated\nFor the calculation of % inhibition the following formula was used:\n[formula] Percent inhibition was calculated as follows: % inhibition=100−% conversion",
  "data": [
    {"compound": "C[C@]12CC[C@@H]3c4ccc(Nc5cccc(S(=O)(=O)N6CCOCC6)c5)cc4CC[C@H]3[C@@H]1[C@@H](CCCC(=O)N1CCOCC1)CC2=O", "note": "[Compound 76, 15alpha-(4-morpholin-4-yl-4-oxobutyl)-3-{[3-(morpholin-4-ylsulfonyl)phenyl]amino}estra-1(10),2,4-trien-17-one]", "values": [
      {"measurement": "inhibition at 0.1 µM", "result": 29, "unit": "%"},
      {"measurement": "inhibition at 1 µM", "result": 26, "unit": "%"}
    ]},
    {"compound": "C[C@]12CC[C@@H]3c4ccc(Nc5cnc6ccccc6c5)cc4CC[C@H]3[C@@H]1[C@@H](CCCC(=O)N1CCOCC1)CC2=O", "note": "[Compound 83, 15alpha-(4-morpholin-4-yl-4-oxobutyl)-3-(quinolin-3-ylamino)estra-1(10),2,4-trien-17-one]", "values": [
      {"measurement": "inhibition at 0.1 µM", "result": 19, "unit": "%"},
      {"measurement": "inhibition at 1 µM", "result": 50, "unit": "%"}
    ]},
    {"compound": "CN(Cc1ccccc1)C(=O)CC[C@@H]1CC(=O)[C@@]2(C)CC[C@@H]3c4ccc(B(O)O)cc4CC[C@H]3[C@H]12", "note": "[Compound 37, [15beta-{3-[benzyl(methyl)amino]-3-oxopropyl}-17-oxoestra-1(10),2,4-trien-3-yl]boronic acid]", "values": [
      {"measurement": "inhibition at 0.1 µM", "result": 22, "unit": "%"},
      {"measurement": "inhibition at 1 µM", "result": 49, "unit": "%"}
    ]},
    {"compound": "COc1ccc(CCN(C)C(=O)CCC[C@H]2CC(=O)[C@@]3(C)CC[C@@H]4c5ccc(B(O)O)cc5CC[C@H]4[C@H]23)cc1OC", "note": "[Compound 26, [15alpha-(4-{[2-(3,4-dimethoxyphenyl)ethyl](methyl)amino}-4-oxobutyl)-17-oxoestra-1(10),2,4-trien-3-yl]boronic acid]", "values": [
      {"measurement": "inhibition at 0.1 µM", "result": 21, "unit": "%"},
      {"measurement": "inhibition at 1 µM", "result": 41, "unit": "%"}
    ]},
    {"compound": "COc1cc(Nc2ccc3c(c2)CC[C@H]2[C@@H]4[C@@H](CCCC(=O)N5CCOCC5)CC(=O)[C@@]4(C)CC[C@H]32)cc(C(F)(F)F)c1", "note": "[Compound 75, 3-{[3-methoxy-5-(trifluoromethyl)phenyl]amino}-15alpha-(4-morpholin-4-yl-4-oxobutyl)estra-1(10),2,4-trien-17-one]", "values": [
      {"measurement": "inhibition at 0.1 µM", "result": 36, "unit": "%"},
      {"measurement": "inhibition at 1 µM", "result": 50, "unit": "%"}
    ]},
    {"compound": "CN(Cc1ccccc1)C(=O)CCC[C@H]1CC(=O)[C@@]2(C)CC[C@@H]3c4ccc(B(O)O)cc4CC[C@H]3[C@H]12", "note": "[Compound 22, [15alpha-{4-[benzyl(methyl)amino]-4-oxobutyl}-17-oxoestra-1(10),2,4-trien-3-yl]boronic acid]", "values": [
      {"measurement": "inhibition at 0.1 µM", "result": 37, "unit": "%"},
      {"measurement": "inhibition at 1 µM", "result": 60, "unit": "%"}
    ]},
    {"compound": "Cc1cnc(NC(=O)CCC[C@H]2CC(=O)[C@@]3(C)CC[C@@H]4c5ccc(B(O)O)cc5CC[C@H]4[C@H]23)s1", "note": "[Compound 16, [15alpha-{4-[(5-methyl-1,3-thiazol-2-yl)amino]-4-oxobutyl}-17-oxoestra-1(10),2,4-trien-3-yl]boronic acid]", "values": [
      {"measurement": "inhibition at 0.1 µM", "result": 30, "unit": "%"},
      {"measurement": "inhibition at 1 µM", "result": 59, "unit": "%"}
    ]}
  ]
}
